Patent US12263177B2, “Biologically active ganoderma lucidum compounds and synthesis of anticancer derivatives; ergosterol peroxide probes for cellular localization” (priority 2019, dated 2025)
Read-outs that look alike come from different tables or passages of the source.

Legend:
MDA-MB-231 = assay: Cytotoxicity of EP probes via CTG assay; type: cell-based, human; settings: read-out: MDA-MB231 EC50
Description: (§1) For the CTG assay, 3 or 4 replicate assays were conducted for each experimental condition, and a minimum of 3 independent experiments were conducted for cellular assays. The mean luminescence of each experimental treatment group was normalized as a percentage of the mean intensity of untreated controls. EC50 values (μM) were calculated by Pipeline Pilot Software (Accelrys, Enterprise Platform, CA, USA). EC50 values (μM) from the viability assay were calculated from dose response curve-fitting via non-linear regression by using GraphPad Prism (Version 7.0 San Diego, CA).

SUM-149 = assay: Cytotoxicity of EP probes via CTG assay; type: cell-based, human
Description: as §1

[1] = test system: MDA-MB-231, SUM-149, T47D; assay: Cytotoxicity of EP analogues via CTG assay, comparison across cell lines; settings: 72 hr
Description: To better understand the structure-activity-relationship of EP, its core was modified at the C3 position of the steroid backbone. […] Both normal cell lines HMEC and BJ cells were also evaluated to determine therapeutic index.
Either 1×10^3-4.8×10^3 or 4×10^2-1.2×10^3 cells were seeded to each well of 96- or 384-well white polystyrene flat-bottomed plates (3610 or 8804BC, Corning) in 100 μL or 30 μL media per well, respectively. The concentrations used were experimentally determined to ensure logarithmic growth during the duration of the experiment and prevent adverse effects on cell growth by DMSO exposure. The plates were incubated at 37° C. in 5% CO2 for 24 h before treatment. Stock solutions of test compounds (10 mM in DMSO) in nine 3-fold serial dilutions were dispensed via pintool (Biomek). The final concentration of DMSO was 0.3% (v/v) in each well. The plates were incubated for 72 h at 37° C. in 5% CO2 and then quenched with CellTiter-Glo® reagent (50 μL/well in 96-well plate, 30 μL/well in 384-well plate) at RT. The positive controls included staurosporine (10 μM), gambogic acid (10 μM), and a toxic quinoline generated in-house. Plates were then incubated at RT for 20 min and centrifuged at 1000 rpm for 1 min. The cytotoxicity assay was performed by using the CellTiterGlo Luminescent Cell Viability Assay kit (G7570, Promega, Madison, WI) according to the manufacturer's instructions. Luminescence was recorded in an Envision plate reader (Perkin Elmer).

HMEC = assay: Cytotoxicity of EP probes via CTG assay, normal cells; type: cell-based; settings: 72 hr
Description: as §1

T47D = assay: Cytotoxicity of EP probes via CTG assay; type: cell-based; settings: 72 hr
Description: as §1

[2] = test system: various breast cancer cell lines; assay: Cell viability assay, breast cancer cell line panel; type: cell-based
Description: Different concentrations of GLE-extracted bioactive chemical components were tested for 72-h treatment periods.
as §1

[3] = Homo sapiens, MDA-MB-231, 72 hr

Question: With `CC(C)C(C)C=CC(C)C1CCC2C1(C)CCC1C23C=CC2(CC(=O)CCC12C)OO3` (stereo not shown) [3a] as the compound, how does the EC50 (MDA-MB-231; 72 hr) read?
Answer: The EC50 was 7 µM.

Question: And the EC50 (SUM-149; 72 hr, read-out: SUM149 EC50)?
Answer: Its EC50 is 5 µM.

Question: What about the “cytotoxicity compared with parental compound 3 (in words)” value [1] of the same compound?
Answer: Its value is “improved activity”.

Question: What about the EC50 (HMEC) of the same compound?
Answer: The EC50 was > 13 µM.

Question: What about the EC50 (T47D) of the same compound?
Answer: The EC50 was 10 µM.

Question: Which EC50 (MDA-MB-231; 72 hr) does the source give for `CC(C)C(C)C=CC(C)C1CCC2C1(C)CCC1C23C=CC2(CC(OC(=O)CCl)CCC12C)OO3` (stereo not shown) [3c] here?
Answer: The EC50 was > 20 µM.

Question: What about the EC50 (SUM-149; 72 hr, read-out: SUM149 EC50) of the same compound?
Answer: The EC50 was 5 µM.

Question: And the “cytotoxicity compared with parental compound 3 (in words)” value [1]?
Answer: Its value is “promising activity against SUM-149 with little or no activity observed at the tested concentrations in MDA-MB-231 and T47D”.

Question: What about the EC50 (HMEC) of the same compound?
Answer: The EC50 was > 20 µM.

Question: And the EC50 (T47D)?
Answer: The EC50 was > 20 µM.

Question: What does the source list for `CC(C)C(C)C=CC(C)C1CCC2C1(C)CCC1C23C=CC2(CC(OC(=O)CN=[N+]=[N-])CCC12C)OO3` (stereo not shown) [3d]?
Answer: EC50 (MDA-MB-231; 72 hr): > 20 µM; EC50 (SUM-149; 72 hr, read-out: SUM149 EC50): 10 µM; cytotoxicity compared with parental compound 3 (in words) [1]: promising activity against SUM-149 with little or no activity observed at the tested concentrations in MDA-MB-231 and T47D; EC50 (HMEC): > 20 µM; EC50 (T47D): > 20 µM

Question: With `C#CCOC1CCC2(C)C3CCC4(C)C(C(C)C=CC(C)C(C)C)CCC4C34C=CC2(C1)OO4` (stereo not shown) [3e] as the compound, how does the EC50 (MDA-MB-231; 72 hr) read?
Answer: The EC50 was 16 µM.

Question: What about the EC50 (SUM-149; 72 hr, read-out: SUM149 EC50) of the same compound?
Answer: The EC50 was 10 µM.

Question: What about the “cytotoxicity compared with parental compound 3 (in words)” value [1] of the same compound?
Answer: Its value is “better activity”.

Question: And the EC50 (HMEC)?
Answer: Its EC50 is > 20 µM.

Question: What about the EC50 (T47D) of the same compound?
Answer: The EC50 was > 20 µM.

Question: What does the source list for `CCOP(=O)(COC1CCC2(C)C3CCC4(C)C(C(C)C=CC(C)C(C)C)CCC4C34C=CC2(C1)OO4)OCC` (stereo not shown) [3f]?
Answer: EC50 (MDA-MB-231; 72 hr): 9 µM; EC50 (SUM-149; 72 hr, read-out: SUM149 EC50): 5 µM; cytotoxicity compared with parental compound 3 (in words) [1]: improved activity; EC50 (HMEC): > 20 µM; EC50 (T47D): > 20 µM

Question: How did the EC50 (MDA-MB-231; 72 hr) turn out when `CC(C)C(C)C=CC(C)C1CCC2C1(C)CCC1C23C=CC2(CC(OCP(=O)(O)O)CCC12C)OO3` (stereo not shown) [3g] was run?
Answer: Its EC50 is 37 µM.

Question: And the EC50 (SUM-149; 72 hr, read-out: SUM149 EC50)?
Answer: Its EC50 is 5 µM.

Question: And the “cytotoxicity compared with parental compound 3 (in words)” value [1]?
Answer: The value was “poor activity”.

Question: What about the EC50 (HMEC) of the same compound?
Answer: The EC50 was > 20 µM.

Question: What about the EC50 (T47D) of the same compound?
Answer: The EC50 was > 20 µM.

Question: For `CC(C)C(C)C=CC(C)C1CCC2C1(C)CCC1C23C=CC2(CC(OP(=O)([O-])OCC[N+](C)(C)C)CCC12C)OO3` (stereo not shown) [3h], which EC50 (MDA-MB-231; 72 hr) is on record?
Answer: The EC50 was 25 µM.

Question: And the EC50 (SUM-149; 72 hr, read-out: SUM149 EC50)?
Answer: Its EC50 is 21 µM.

Question: And the “cytotoxicity compared with parental compound 3 (in words)” value [1]?
Answer: Its value is “poor activity”.

Question: And the EC50 (HMEC)?
Answer: Its EC50 is > 20 µM.

Question: What about the EC50 (T47D) of the same compound?
Answer: Its EC50 is 17 µM.

Question: Which EC50 (MDA-MB-231; 72 hr) does the source give for `CC(C)C(C)C=CC(C)C1CCC2C1(C)CCC1C23C=CC2(CC(OC(=O)CCCC(=O)O)CCC12C)OO3` (stereo not shown) [3i] here?
Answer: Its EC50 is 33 µM.

Question: What about the EC50 (SUM-149; 72 hr, read-out: SUM149 EC50) of the same compound?
Answer: The EC50 was 5 µM.

Question: And the “cytotoxicity compared with parental compound 3 (in words)” value [1]?
Answer: Its value is “poor activity”.

Question: What about the EC50 (HMEC) of the same compound?
Answer: The EC50 was > 20 µM.

Question: What about the EC50 (T47D) of the same compound?
Answer: The EC50 was 18 µM.

Question: `C#CCCCC(=O)OC1CCC2(C)C3CCC4(C)C(C(C)C=CC(C)C(C)C)CCC4C34C=CC2(C1)OO4` (stereo not shown) [3j] was tested. Which EC50 (MDA-MB-231; 72 hr) did it give?
Answer: Its EC50 is 8 µM.

Question: And the EC50 (SUM-149; 72 hr, read-out: SUM149 EC50)?
Answer: Its EC50 is 4 µM.

Question: And the “cytotoxicity compared with parental compound 3 (in words)” value [1]?
Answer: The value was “superior activity across cell lines”.

Question: And the EC50 (HMEC)?
Answer: Its EC50 is > 13 µM.

Question: And the EC50 (T47D)?
Answer: Its EC50 is 11 µM.

Question: For `CCCCCOC(=O)Nc1nc(=O)n([C@@H]2O[C@H](C)[C@@H](O)[C@H]2O)cc1F` [Capecitabin, reference compound], which EC50 (MDA-MB-231; 72 hr) is on record?
Answer: Its EC50 is 5 µM.

Question: And the EC50 (SUM-149; 72 hr, read-out: SUM149 EC50)?
Answer: The EC50 was 5 µM.

Question: And the EC50 (HMEC)?
Answer: The EC50 was 10 µM.

Question: Which results are given for `COc1cccc2c1C(=O)c1c(O)c3c(c(O)c1C2=O)C[C@@](O)(C(=O)CO)C[C@@H]3O[C@H]1C[C@H](N)[C@H](O)[C@H](C)O1` [Doxorubicin, reference compound]?
Answer: EC50 (MDA-MB-231; [3]): 1 µM; EC50 (SUM-149; Homo sapiens, SUM149, 72 hr): 1 µM; EC50 (HMEC; Homo sapiens, HMEC): > 10 µM

Question: Which results are given for `CC(=O)O[C@H]1C(=O)[C@@]2(C)[C@H]([C@H](OC(=O)c3ccccc3)[C@]3(O)C[C@H](OC(=O)[C@H](O)[C@@H](NC(=O)c4ccccc4)c4ccccc4)C(C)=C1C3(C)C)[C@]1(OC(C)=O)CO[C@@H]1C[C@@H]2O` [Taxol, reference compound]?
Answer: EC50 (MDA-MB-231; [3]): 2 µM; EC50 (SUM-149; Homo sapiens, SUM149, 72 hr): 0.01 µM; EC50 (HMEC; Homo sapiens, HMEC): > 10 µM

Question: `CCCCCCCCCCCCCCCC(=O)O` [palmitic acid] was tested. Which “activity at the tested concentrations in the evaluated cell lines” value [2] did it give?
Answer: The value was “did not show activity”.
